Reference: patent US10646488B2 (Araxes Pharma LLC, priority 2016, dated 2020)

Molecular target: T1, KRAS G12C 1-169, his-tagged protein, GDP-loaded (Homo sapiens, UniProt P01116, G12C)
T1 construct: KRAS G12C 1-169, his-tagged protein, GDP-loaded
Assay: Covalent binding (% modification) to KRAS G12C by mass spectrometry
Method: Test compounds were prepared as 10 mM stock solutions in DMSO (Fisher cat # BP-231-100). KRAS G12C 1-169, his-tagged protein, GDP-loaded was diluted to 2 μm in buffer (20 mM Hepes, 150 mM NaCl, 1 mM MgCl2). Compounds were tested for activity as follows:
Compounds were diluted to 50× final test concentration in DMSO in 96-well storage plates. Compound stock solutions were vortexed before use and observed carefully for any sign of precipitation. Dilutions were as follow: • For 100 μM final compound concentration, compounds were diluted to 5000 μM (5 μl 10 mM compound stock+5 μl DMSO and mixed well by pipetting. • For 30 μM final compound concentration, compounds were diluted to 1500 μM (3 μl 10 mM compound stock+17 μl DMSO) and mixed well by pipetting. • For 10 μM final compound concentration, compounds were diluted to 500 μM (2 μl 10 mM compound stock+38 μl DMSO) and mixed well by pipetting. 49 μl of the stock protein solution was added to each well of a 96-well PCR plate (Fisher cat #1423027). 1 μl of the diluted 50× compounds were added to appropriate wells in the PCR plate using 12-channel pipettor. Reactions were mixed carefully and thoroughly by pipetting up/down with a 200·1 multi-channel pipettor. […] 5 μl of 2% formic acid (Fisher cat # A117) in DI H2O was then added to each well followed by mixing with a pipette. The plate was then resealed with aluminum seal and stored on dry ice until analyzed as described below.
The above described assays were analyzed by mass spectrometry according to one of the following two procedures:
The MS instrument is set to positive polarity, 2 GHz resolution, and low mass (1700) mode and allowed to equilibrate for 30 minutes. The instrument is then calibrated, switched to acquisition mode and the appropriate method loaded.
After another 30 minute equilibration time, a blank batch (i.e., buffer) is run to ensure equipment is operating properly. The samples are thawed at 37° C. for 10 minutes, briefly centrifuged, and transfer to the bench top. Wells A1 and H12 are spiked with 1 uL 500 uM internal standard peptide, and the plates centrifuged at 2000×g for 5 minutes. The method is then run and masses of each individual well recorded.
The masses (for which integration data is desired) for each well are pasted into the platemap and exported from the analysis. Masses for the internal standards are exported as well. The data at 50 ppm is extracted for the +19 charge state, and identity of well A1 is assigned using the internal standard spike and integrated. Peak data is exported as a TOF list and the above steps are repeated individually, for the +20, 21, 22, 23, 24, and 25 charge states.
The masses and peak intensities of KRAS G12C protein species were measured using a Dionex RSLCnano system (Thermo Scientific) connected to a Q Exactive Plus mass spectrometer (Thermo Scientific).
[…] of sample was each loaded onto a Aeris™ 3.6 μm WIDEPORE C4 200 Å, LC Column 50×2.1 mm column maintained at 40° C. at a flow rate of 600 μl min^−1 with […] (0.1% formic acid in acetonitrile). The liquid chromatography conditions were 20% solvent B for 1 min, 20% to 60% solvent B for 1.5 min, 60% to 90% solvent for 0.5 min, 90% solvent B for 0.2 min, 90% to 20% solvent B for 0.2 min, and then equilibrated for 1.6 min before the following sample injection. The flow rate was maintained at 600 μl min^−1 throughout the sample analysis.
The mass spectrometer was operated in profile mode at a resolution of 17500, 5 microscans, using 50 msec max injection time and an AGC target of 1e6, and a full mass range from 800-1850 m/z was recorded. The HCD trapping gas was optimized for maximum sensitivity for intact proteins. The ionization method was electrospray ionization, which used a spray voltage of 4 kV, sheath gas flow set to 50 au, auxiliary gas flow set to 10 au and sweep gas flow set to 1 au. […]

[1] = covalent binding to KRAS G12C after a three minute incubation period
[2] = covalent binding to KRAS G12C after a ten minute incubation period

Compound | Binding % [1] | Binding % [2]
C=CC(=O)N1C[C@H](C)N(c2nc(N3CC(C)(N(C)C)C3)nc3c(F)c(-c4c(C)ccc5[nH]ncc45)c(Cl)cc23)C[C@H]1C [Compound 121, 1-((2R,5S)-4-(6-chloro-2-(3-(dimethylamino)-3-methylazetidin-1-yl)-8-fluoro-7-(5-methyl-1H-indazol-4-yl)quinazolin-4-yl)-2,5-dimethyl-piperazin-1-yl) prop-2-en-1-one] | ++ (++ indicates binding activity from 50 to 90%) | 
C=CC(=O)N1C[C@H](C)N(c2nc(N3CC(N(C)C)C3)nc3c(F)c(-c4ccc(Cl)cc4F)c(Cl)cc23)C[C@H]1C [Compound 161, 1-((2R,5S)-4-(6-chloro-7-(4-chloro-2-fluoro-phenyl)-2-(3-(dimethylamino)azetidin-1-yl)-8-fluoroquinazolin-4-yl)-2,5-dimethyl-piperazin-1-yl) prop-2-en-1-one] | + (+ indicates binding activity greater than 0% and up to 50%) | 
C=CC(=O)N1C[C@H](C)N(c2nc(N3CC(N(C)C)C3)nc3c(F)c(-c4c(C)ccc5cn[nH]c45)c(Cl)cc23)C[C@H]1C (atropisomer, axis not shown) [Compound 72, 1-((2R,5S)-4-((R)-6-chloro-2-(3-(dimethylamino)azetidin-1-yl)-8-fluoro-7-(6-methyl-1H-indazol-7-yl)quinazolin-4-yl)-2,5-dimethyl-piperazin-1-yl) prop-2-en-1-one] |  | +++ (+++ indicates binding activity greater than 90%)
1-((2R,5S)-4-(6- chloro-2-(2- (diethylamino) ethoxy)-8-fluoro- 7-((S)-6-methyl- 1H-indazol-7-yl) quinazolin-4-yl)- 2,5-dimethyl- piperazin-1-yl) prop-2-en-1-one [Compound 157] | + (+ indicates binding activity greater than 0% and up to 50%) | 
C=CC(=O)N1C[C@H](C)N(c2nc(N3CC(N(C)C)C3)nc3c(F)c(-c4cc(B5OC(C)(C)C(C)(C)O5)cc5ccccc45)c(Cl)cc23)C[C@H]1C [Compound 179, 1-((2R,5S)-4-(6-chloro-2-(3-(dimethylamino)azetidin-1-yl)-8-fluoro-7-(3-(4,4,5,5-tetramethyl-1,3,2-dioxaborolan-2-yl)naphthalen-1-yl)quinazolin-4-yl)-2,5-dimethyl-piperazin-1-yl) prop-2-en-1-one] | + (+ indicates binding activity greater than 0% and up to 50%) | 
C=CC(=O)N1C[C@H](C)N(c2nc(N3CC(N(C)C)C3)nc3c(F)c(-c4c(O)ccc5ccccc45)c(Cl)cc23)C[C@H]1C [Compound 211, 1-((2R,5S)-4-(6-chloro-2-(3-(dimethylamino)azetidin-1-yl)-8-fluoro-7-(2-hydroxynaphthalen-1-yl)quinazolin-4-yl)-2,5-dimethyl-piperazin-1-yl) prop-2-en-1-one] | ++ (++ indicates binding activity from 50 to 90%) | 
C=CC(=O)N1CCN(c2nc(OCCN3CC(F)(F)C3)nc3c(F)c(-c4c(O)cccc4F)c(Cl)cc23)C[C@H]1C (atropisomer, axis not shown) [Compound 63, 1-((R)-4-((S)-6-chloro-2-(2-(3,3-difluoroazetidin-1-yl)ethoxy)-8-fluoro-7-(2-fluoro-6-hydroxyphenyl)quinazolin-4-yl)-2-methyl-piperazin-1-yl) prop-2-en-1-one] |  | +++ (+++ indicates binding activity greater than 90%)
C=CC(=O)N1CCN(c2nc(NC3CCN(C4CC4)CC3)nc3c(F)c(-c4c(C)ccc5[nH]ncc45)c(Cl)cc23)[C@@H](C)C1 (atropisomer, axis not shown) [Compound 14, 1-((S)-4-(6-chloro-2-((1-cyclopropyl-piperidin-4-yl)amino)-8-fluoro-7-((S)-5-methyl-1H-indazol-4-yl)quinazolin-4-yl)-3-methyl-piperazin-1-yl) prop-2-en-1-one] |  | + (+ indicates binding activity up to 50%)
C=CC(=O)N1C[C@H](C)N(c2nc(N3CC(NC)C3)nc3c(F)c(-c4c(O)cccc4F)c(Cl)cc23)C[C@H]1C [Compound 96, 1-((2R,5S)-4-(6-chloro-8-fluoro-7-(2-fluoro-6-hydroxyphenyl)-2-(3-(methylamino)azetidin-1-yl)quinazolin-4-yl)-2,5-dimethyl-piperazin-1-yl) prop-2-en-1-one] | +++ (+++ indicates binding activity greater than 90%) | 
C=CC(=O)N1C[C@H](C)N(c2nc(Oc3cnn(C)c3)nc3c(F)c(-c4c(O)cccc4F)c(Cl)cc23)C[C@H]1C [Compound 225, 1-((2R,5S)-4-(6-chloro-8-fluoro-7-(2-fluoro-6-hydroxyphenyl)-2-(1-methyl-1H-pyrazol-4-yloxy)quinazolin-4-yl)-2,5-dimethyl-piperazin-1-yl) prop-2-en-1-one] | ++ (++ indicates binding activity from 50 to 90%) | 
C=CC(=O)N1C[C@H](C)N(c2nc(N3CC4(CCO4)C3)nc3c(F)c(-c4c(C)ccc5[nH]ncc45)c(Cl)cc23)C[C@H]1C [Compound 193, 1-((2R,5S)-4-(6-chloro-8-fluoro-7-(5-methyl-1H-indazol-4-yl)-2-(1-oxa-6-azaspiro[3.3]heptan-6-yl)quinazolin-4-yl)-2,5-dimethyl-piperazin-1-yl) prop-2-en-1-one] | ++ (++ indicates binding activity from 50 to 90%) | 
C=CC(=O)N1C[C@H](C)N(c2nc(N3CC(N(C)C4CCC4)C3)nc3c(F)c(-c4c(O)cccc4F)c(Cl)cc23)C[C@H]1C [Compound 110, 1-((2R,5S)-4-(6-chloro-2-(3-(cyclobutyl (methyl)amino)azetidin-1-yl)-8-fluoro-7-(2-fluoro-6-hydroxyphenyl)quinazolin-4-yl)-2,5-dimethyl-piperazin-1-yl) prop-2-en-1-one] | ++ (++ indicates binding activity from 50 to 90%) | 
C=CC(=O)N1[C@H](C)CN(c2nc(N3CC(N(C)C)C3)nc3c(F)c(-c4c(C)ccc5[nH]ncc45)c(Cl)cc23)C[C@@H]1C [Compound 39, 1-((2R,6S)-4-(6-chloro-2-(3-(dimethylamino)azetidin-1-yl)-8-fluoro-7-(5-methyl-1H-indazol-4-yl)quinazolin-4-yl)-2,6-dimethyl-piperazin-1-yl) prop-2-en-1-one] |  | ++ (++ indicates binding activity from 50 to 90%)
C=CC(=O)N1CCN(c2nc(NC3CCN(C4CC4)CC3)nc3c(F)c(-c4c(C)ccc5[nH]ncc45)c(Cl)cc23)[C@@H](C)C1 (atropisomer, axis not shown) [Compound 13, 1-((S)-4-(6-chloro-2-(1-cyclopropyl-piperidin-4-ylamino)-8-fluoro-7-((R)-5-methyl-1H-indazol-4-yl)quinazolin-4-yl)-3-methyl-piperazin-1-yl) prop-2-en-1-one] |  | +++ (+++ indicates binding activity greater than 90%)
C=CC(=O)N1C[C@H](C)N(c2nc(N3CC(N(C)C(C)C)C3)nc3c(F)c(-c4c(C)ccc5[nH]ncc45)c(Cl)cc23)C[C@H]1C [Compound 123, 1-((2R,5S)-4-(6-chloro-8-fluoro-2-(3-(isopropyl (methyl)amino)azetidin-1-yl)-7-(5-methyl-1H-indazol-4-yl)quinazolin-4-yl)-2,5-dimethyl-piperazin-1-yl) prop-2-en-1-one] | + (+ indicates binding activity greater than 0% and up to 50%) | 
C=CC(=O)N1C[C@H](C)N(c2nc(N3CC(N)C3)nc3c(F)c(-c4c(O)cccc4F)c(Cl)cc23)C[C@H]1C [Compound 92] | ++ (++ indicates binding activity from 50 to 90%) | 
